Assay results as given in patent US20230117324A1, “OXAZINE MONOACYLGLYCEROL LIPASE (MAGL) INHIBITORS” (Hoffmann-La Roche Inc., priority 2018, published 2023).

Target: T1, MAGL (Homo sapiens, UniProt Q99685)
T1 sequence (Q99685 1-303): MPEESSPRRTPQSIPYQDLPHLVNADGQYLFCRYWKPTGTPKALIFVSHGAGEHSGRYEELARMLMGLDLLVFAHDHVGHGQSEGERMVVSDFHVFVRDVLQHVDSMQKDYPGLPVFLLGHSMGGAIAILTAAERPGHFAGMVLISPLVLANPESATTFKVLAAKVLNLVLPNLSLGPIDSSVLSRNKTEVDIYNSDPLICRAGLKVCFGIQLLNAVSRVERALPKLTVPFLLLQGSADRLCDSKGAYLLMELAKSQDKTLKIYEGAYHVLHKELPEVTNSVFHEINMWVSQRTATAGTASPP
Test: MAGL inhibition, 2-AG assay (hydrolysis of 2-arachidonoylglycerol, arachidonic acid by mass spectrometry)
Type: biochemical
Settings: 2-AG assay (footnote [b])
Summary of the method: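 Hydrolysis of 8 μM 2-arachidonoylglycerol by […] was run for 30 min at RT after a 15 min compound preincubation, in Tris/EDTA/Tween buffer. Test compounds spanned […]. The product was measured by online SPE-MS/MS (transitions 303.1→259.1 and 311.1→267.0), and activity was derived from the arachidonic acid/d8-arachidonic acid signal ratio.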

| IC50 | Structure (SMILES) |
| --- | --- |
| 428 nM | CS(=O)(=O)c1cccc(C(c2ccncc2)C2CCN(C(=O)N3CC[C@@H]4OCC(=O)N[C@@H]4C3)CC2)c1 (single isomer, unassigned) [Example 177, (4aR,8aS)-6-[4-[(R or S)-(3-methylsulfonylphenyl)-(4-pyridyl)methyl]piperidine-1-carbonyl]-4,4a,5,7,8,8a-hexahydropyrido[4,3-b][1,4]oxazin-3-one] |
| 131 nM | CS(=O)(=O)c1cccc(C(c2ccncc2)C2CCN(C(=O)N3CC[C@@H]4OCC(=O)N[C@@H]4C3)CC2)c1 (single isomer, unassigned) [Example 178, (4aR,8aS)-6-[4-[(S or R)-(3-methylsulfonylphenyl)-(4-pyridyl)methyl]piperidine-1-carbonyl]-4,4a,5,7,8,8a-hexahydropyrido[4,3-b][1,4]oxazin-3-one] |
| 68 nM | CS(=O)(=O)c1cccc(C(c2ccccn2)C2CCN(C(=O)N3CC[C@@H]4OCC(=O)N[C@@H]4C3)CC2)c1 (single isomer, unassigned) [Example 189, (4aR,8aS)-6-[4-[(R or S)-(3-methylsulfonylphenyl)-(2-pyridyl)methyl]piperidine-1-carbonyl]-4,4a,5,7,8,8a-hexahydropyrido[4,3-b][1,4]oxazin-3-one] |
| 261 nM | CS(=O)(=O)c1cccc(C(c2ccccn2)C2CCN(C(=O)N3CC[C@@H]4OCC(=O)N[C@@H]4C3)CC2)c1 (single isomer, unassigned) [Example 190, (4aR,8aS)-6-[4-[(S or R)-(3-methylsulfonylphenyl)-(2-pyridyl)methyl]piperidine-1-carbonyl]-4,4a,5,7,8,8a-hexahydropyrido[4,3-b][1,4]oxazin-3-one] |
| 0.1 nM | O=C1CO[C@H]2CCN(C(=O)N3CC(c4ccc(N5CCCC5C(F)(F)F)cc4)C3)C[C@H]2N1 (single isomer, unassigned) [Example 194] |
| 0.4 nM | O=C1CO[C@H]2CCN(C(=O)N3CC(c4ccc(N5CCCC5C(F)(F)F)cc4)C3)C[C@H]2N1 (single isomer, unassigned) [Example 195] |
| 0.5 nM | O=C1CO[C@H]2CCN(C(=O)N3CC(c4ccc(N5CCC(C(F)(F)F)C5)cc4)C3)C[C@H]2N1 (single isomer, unassigned) [Example 197, (4aR,8aS)-6-(3-(4-((R or S)-3-(Trifluoromethyl)pyrrolidin-1-yl)phenyl)azetidine-1-carbonyl)hexahydro-2H-pyrido[4,3-b][1,4]oxazin-3(4H)-one] |
| 1 nM | O=C1CO[C@H]2CCN(C(=O)N3CC(c4ccc(N5CCC(C(F)(F)F)C5)cc4)C3)C[C@H]2N1 (single isomer, unassigned) [Example 198, (4aR,8aS)-6-(3-(4-((S or R)-3-(Trifluoromethyl)pyrrolidin-1-yl)phenyl)azetidine-1-carbonyl)hexahydro-2H-pyrido[4,3-b][1,4]oxazin-3(4H)-one] |
| 178 nM | O=C1CO[C@H]2CCN(C(=O)N3CCC(c4cccc(OC(F)(F)F)c4)C3)C[C@H]2N1 (single isomer, unassigned) [Example 221, (4aR,8aS)-6-[3-(S or R)-[3-(Trifluoromethoxy)phenyl]pyrrolidine-1-carbonyl]-4,4a,5,7,8,8a-hexahydropyrido[4,3-b][1,4]oxazin-3-one] |
| 114 nM | O=C1CO[C@H]2CCN(C(=O)N3CCC(c4cccc(OC(F)(F)F)c4)C3)C[C@H]2N1 (single isomer, unassigned) [Example 222, (4aR,8aS)-6-[3-(R or S)-[3-(Trifluoromethoxy)phenyl]pyrrolidine-1-carbonyl]-4,4a,5,7,8,8a-hexahydropyrido[4,3-b][1,4]oxazin-3-one] |
| 162 nM | O=C1CO[C@H]2CCN(C(=O)N3CCC(c4cccc(Br)c4)C3)C[C@H]2N1 (single isomer, unassigned) [Example 228, (4aR,8aS)-6-[(3S or R)-3-(3-Bromophenyl)pyrrolidine-1-carbonyl]-4,4a,5,7,8,8a-hexahydropyrido[4,3-b][1,4]oxazin-3-one] |
| 229 nM | O=C1CO[C@H]2CCN(C(=O)N3CCC(c4cccc(Br)c4)C3)C[C@H]2N1 (single isomer, unassigned) [Example 229, (4aR,8aS)-6-[(3R or S)-3-(3-Bromophenyl)pyrrolidine-1-carbonyl]-4,4a,5,7,8,8a-hexahydropyrido[4,3-b][1,4]oxazin-3-one] |
| 156 nM | O=C1CO[C@H]2CCN(C(=O)N3CCC(c4cc(Cl)cc(OCC(F)(F)F)c4)C3)C[C@H]2N1 (single isomer, unassigned) [Example 238, (4aR,8aS)-6-((R or S)-3-(3-Chloro-5-(2,2,2-trifluoroethoxy)phenyl)pyrrolidine-1-carbonyl)hexahydro-2H-pyrido[4,3-b][1,4]oxazin-3(4H)-one] |
| 39 nM | O=C1CO[C@H]2CCN(C(=O)N3CCC(c4cc(Cl)cc(OCC(F)(F)F)c4)C3)C[C@H]2N1 (single isomer, unassigned) [Example 239, (4aR,8aS)-6-((S or R)-3-(3-Chloro-5-(2,2,2-trifluoroethoxy)phenyl)pyrrolidine-1-carbonyl)hexahydro-2H-pyrido[4,3-b][1,4]oxazin-3(4H)-one] |
| 1 nM | CC(Oc1ccc(C2CN(C(=O)N3CC[C@@H]4OCC(=O)N[C@@H]4C3)C2)cc1)C(F)(F)F (single isomer, unassigned) [Example 246, (4aR,8aS)-6-[3-(R or S)-[4-(2,2,2-Trifluoro-1-methyl-ethoxy)phenyl]azetidine-1-carbonyl]-4,4a,5,7,8,8a-hexahydropyrido[4,3-b][1,4]oxazin-3-one] |
| 1 nM | CC(Oc1ccc(C2CN(C(=O)N3CC[C@@H]4OCC(=O)N[C@@H]4C3)C2)cc1)C(F)(F)F (single isomer, unassigned) [Example 248, (4aR,8aS)-6-[3-(S or R)-[4-(2,2,2-Trifluoro-1-methyl-ethoxy)phenyl]azetidine-1-carbonyl]-4,4a,5,7,8,8a-hexahydropyrido[4,3-b][1,4]oxazin-3-one] |
| 22 nM | O=C1CO[C@H]2CCN(C(=O)N3CC(c4ccc(N5CCC(C(F)(F)F)C5)cn4)C3)C[C@H]2N1 (single isomer, unassigned) [Example 271, (4aR,8aS)-6-(3-(5-((R or S)-3-(Trifluoromethyl)pyrrolidin-1-yl)pyridin-2-yl)azetidine-1-carbonyl)hexahydro-2H-pyrido[4,3-b][1,4]oxazin-3(4H)-one] |
| 17 nM | O=C1CO[C@H]2CCN(C(=O)N3CC(c4ccc(N5CCC(C(F)(F)F)C5)cn4)C3)C[C@H]2N1 (single isomer, unassigned) [Example 272, (4aR,8aS)-6-(3-(5-((S or R)-3-(Trifluoromethyl)pyrrolidin-1-yl)pyridin-2-yl)azetidine-1-carbonyl)hexahydro-2H-pyrido[4,3-b][1,4]oxazin-3(4H)-one] |
| 2 nM | O=C1CO[C@H]2CCN(C(=O)N3CC(c4ccc(N5CCC(C(F)(F)F)C5)nc4)C3)C[C@H]2N1 (single isomer, unassigned) [Example 274, (4aR,8aS)-6-[3-[6-[3-(R or S)-(Trifluoromethyl)pyrrolidin-1-yl]-3-pyridyl]azetidine-1-carbonyl]-4,4a,5,7,8,8a-hexahydropyrido[4,3-b][1,4]oxazin-3-one] |
| 670 nM | CC(C)(C)[Si](C)(C)OCCn1cc(C2CCN(C(=O)N3CC[C@@H]4OCC(=O)NC4C3)CC2)c2cc(Cl)ccc21 (stereo in doubt) [Example 268, (4aS,8aS)-6-[4-[1-[2-[tert-Butyl(dimethyl)silyl]oxyethyl]-5-chloro-indol-3-yl]piperidine-1-carbonyl]-4,4a,5,7,8,8a-hexahydropyrido[4,3-b][1,4]oxazin-3-one] |
| 361 nM | N#CC(c1ccc(F)cc1)C1CCN(C(=O)N2CC[C@@H]3OCC(=O)N[C@@H]3C2)CC1 (stereo partly drawn) [Example 48, 2-(4-Fluorophenyl)-2-(1-((4aR,8aS)-3-oxooctahydro-2H-pyrido[4,3-b][1,4]oxazine-6-carbonyl)piperidin-4-yl)acetonitrile] |
| 1100 nM | O=C1CO[C@H]2CCN(C(=O)N3CCN(C(c4ccccc4)C(F)(F)F)CC3)C[C@H]2N1 (stereo partly drawn) [Example 49, (4aR,8aS)-6-(4-(2,2,2-Trifluoro-1-phenylethyl)piperazine-1-carbonyl)hexahydro-2H-pyrido[4,3-b][1,4]oxazin-3(4H)-one] |
| 9 nM | O=C1CO[C@H]2CCN(C(=O)N3CCC(C(OCC(F)(F)F)c4ccc(F)cc4)CC3)C[C@H]2N1 (stereo partly drawn) [Example 50, (4aR,8aS)-6-(4-((4-Fluorophenyl)(2,2,2-trifluoroethoxy)methyl)piperidine-1-carbonyl)hexahydro-2H-pyrido[4,3-b][1,4]oxazin-3(4H)-one] |
| 63 nM | Cc1noc(CC(c2ccc(F)cc2)C2CCN(C(=O)N3CC[C@@H]4OCC(=O)N[C@@H]4C3)CC2)n1 (stereo partly drawn) [Example 51, (4aR,8aS)-6-(4-(1-(4-Fluorophenyl)-2-(3-methyl-1,2,4-oxadiazol-5-yl)ethyl)piperidine-1-carbonyl)hexahydro-2H-pyrido[4,3-b][1,4]oxazin-3(4H)-one] |
| 21 nM | O=C1CO[C@H]2CCN(C(=O)N3CCC(C4(c5ccc(C(F)(F)F)cc5)CC4)CC3)C[C@H]2N1 [Example 52, (4aR,8aS)-6-(4-(1-(4-(Trifluoromethyl)phenyl)cyclopropyl)piperidine-1-carbonyl)hexahydro-2H-pyrido[4,3-b][1,4]oxazin-3(4H)-one] |
